Where “and” joins values, the source holds several entries; their conditions need not be identical. Equal values may be shown once.
Assays:
Test in all cases: Caliper, Mobility shift assay off-chip
INSR (human) = INSR (human) (UniProt P06213)
PTK6 (human) = PTK6 (human) (UniProt Q13882)
PRKD3 (human) = PRKD3 (human) (UniProt O94806)
HIPK2 (human) = HIPK2 (human) (UniProt Q9H2X6)
MARK4 (human) = MARK4 (human) (UniProt Q96L34)
ERBB2 (human) = ERBB2 (human) (UniProt P04626); conditions: compound 0.02 µM
PASK (human) = PASK (human) (UniProt Q96RG2)
PTK2B (human) = PTK2B (human) (UniProt Q14289)
PHKG1 (human) = PHKG1 (human) (UniProt Q16816)
SPHK2 (human) = SPHK2 (human) (UniProt Q9NRA0)
PRKG2 (human) = PRKG2 (human) (UniProt Q13237)
FER (human) = FER (human) (UniProt P16591)
Sequence of FER (human) (P16591 whole entry, looked up): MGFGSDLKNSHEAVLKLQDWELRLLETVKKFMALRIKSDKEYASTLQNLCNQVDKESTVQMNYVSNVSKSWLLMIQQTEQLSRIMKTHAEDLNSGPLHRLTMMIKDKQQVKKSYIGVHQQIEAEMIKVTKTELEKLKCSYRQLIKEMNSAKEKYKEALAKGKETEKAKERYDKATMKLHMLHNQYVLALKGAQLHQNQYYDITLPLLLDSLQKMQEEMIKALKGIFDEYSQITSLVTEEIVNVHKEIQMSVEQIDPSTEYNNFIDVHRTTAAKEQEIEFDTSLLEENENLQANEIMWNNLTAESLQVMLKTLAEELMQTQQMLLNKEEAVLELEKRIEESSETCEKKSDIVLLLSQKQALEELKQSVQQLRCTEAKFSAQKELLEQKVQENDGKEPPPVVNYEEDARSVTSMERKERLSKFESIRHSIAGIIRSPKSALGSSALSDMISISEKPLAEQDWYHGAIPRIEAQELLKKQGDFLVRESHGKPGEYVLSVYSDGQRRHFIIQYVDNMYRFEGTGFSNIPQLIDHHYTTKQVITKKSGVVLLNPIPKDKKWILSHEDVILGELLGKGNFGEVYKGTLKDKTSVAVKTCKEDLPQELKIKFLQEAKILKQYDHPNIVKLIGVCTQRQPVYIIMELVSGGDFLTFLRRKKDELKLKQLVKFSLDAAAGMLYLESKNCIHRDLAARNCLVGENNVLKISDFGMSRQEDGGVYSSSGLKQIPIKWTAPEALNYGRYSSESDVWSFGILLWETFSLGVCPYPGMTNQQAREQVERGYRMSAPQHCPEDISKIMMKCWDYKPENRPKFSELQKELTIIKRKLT

ROCK1 (human) = ROCK1 (human) (UniProt Q13464)
RPS6KA5 KD1 KD2 (human) = RPS6KA5 KD1 KD2 (human) (UniProt O75582)
PRKD2 (human) = PRKD2 (human) (UniProt Q9BZL6)
MST1R (human) = MST1R (human) (UniProt Q04912)
MKNK1 (human) = MKNK1 (human) (UniProt Q9BUB5)
CHEK2 (human) = CHEK2 (human) (UniProt O96017)
CDK1 (human) = CDK1 (human) (UniProt P06493)
CLK2 (human) = CLK2 (human) (UniProt P49760)
CSF1R (human) = CSF1R (human) (UniProt P07333)
RPS6KA2 KD1 KD2 (human) = RPS6KA2 KD1 KD2 (human) (UniProt Q15349)
EPHA8 (human) = EPHA8 (human) (UniProt P29322)
EPHA2 (human) = EPHA2 (human) (UniProt P29317)
CSNK1D (human) = CSNK1D (human) (UniProt P48730)
Sequence of CSNK1D (human) (P48730 whole entry, looked up): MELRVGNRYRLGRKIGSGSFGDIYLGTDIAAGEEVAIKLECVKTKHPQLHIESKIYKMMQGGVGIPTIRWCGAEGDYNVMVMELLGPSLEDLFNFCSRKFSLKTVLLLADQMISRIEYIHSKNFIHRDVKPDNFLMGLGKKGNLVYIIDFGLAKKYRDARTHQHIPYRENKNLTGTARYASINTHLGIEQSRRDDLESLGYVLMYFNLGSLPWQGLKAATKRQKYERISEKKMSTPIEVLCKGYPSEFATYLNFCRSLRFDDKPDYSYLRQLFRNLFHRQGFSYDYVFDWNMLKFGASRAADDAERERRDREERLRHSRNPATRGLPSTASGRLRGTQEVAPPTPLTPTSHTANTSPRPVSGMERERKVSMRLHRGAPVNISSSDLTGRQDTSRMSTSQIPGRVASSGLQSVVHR

SYK (human) = SYK (human) (UniProt P43405)
PRKCB1 (human) = PRKCB1 (human) (UniProt P05771)
Sequence of PRKCB1 (human) (P05771 whole entry, looked up): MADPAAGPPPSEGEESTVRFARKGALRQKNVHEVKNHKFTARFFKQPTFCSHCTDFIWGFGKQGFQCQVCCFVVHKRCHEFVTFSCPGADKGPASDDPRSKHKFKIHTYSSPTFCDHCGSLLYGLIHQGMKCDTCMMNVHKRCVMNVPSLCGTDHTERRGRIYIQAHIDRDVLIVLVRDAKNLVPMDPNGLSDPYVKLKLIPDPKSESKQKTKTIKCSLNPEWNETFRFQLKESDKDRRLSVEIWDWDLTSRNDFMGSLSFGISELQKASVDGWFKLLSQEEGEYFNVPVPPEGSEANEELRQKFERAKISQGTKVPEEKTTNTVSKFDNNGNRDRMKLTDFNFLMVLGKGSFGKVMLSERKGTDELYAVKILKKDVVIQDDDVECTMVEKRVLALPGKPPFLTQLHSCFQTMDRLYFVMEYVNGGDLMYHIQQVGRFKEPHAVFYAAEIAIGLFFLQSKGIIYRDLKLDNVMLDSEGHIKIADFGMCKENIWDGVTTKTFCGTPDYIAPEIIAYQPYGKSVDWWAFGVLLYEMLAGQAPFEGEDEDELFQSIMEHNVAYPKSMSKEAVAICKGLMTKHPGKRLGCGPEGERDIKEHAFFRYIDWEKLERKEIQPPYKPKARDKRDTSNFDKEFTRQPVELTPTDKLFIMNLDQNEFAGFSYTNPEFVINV

NEK4 (human) = NEK4 (human) (UniProt P51957)
Sequence of NEK4 (human) (P51957 whole entry, looked up): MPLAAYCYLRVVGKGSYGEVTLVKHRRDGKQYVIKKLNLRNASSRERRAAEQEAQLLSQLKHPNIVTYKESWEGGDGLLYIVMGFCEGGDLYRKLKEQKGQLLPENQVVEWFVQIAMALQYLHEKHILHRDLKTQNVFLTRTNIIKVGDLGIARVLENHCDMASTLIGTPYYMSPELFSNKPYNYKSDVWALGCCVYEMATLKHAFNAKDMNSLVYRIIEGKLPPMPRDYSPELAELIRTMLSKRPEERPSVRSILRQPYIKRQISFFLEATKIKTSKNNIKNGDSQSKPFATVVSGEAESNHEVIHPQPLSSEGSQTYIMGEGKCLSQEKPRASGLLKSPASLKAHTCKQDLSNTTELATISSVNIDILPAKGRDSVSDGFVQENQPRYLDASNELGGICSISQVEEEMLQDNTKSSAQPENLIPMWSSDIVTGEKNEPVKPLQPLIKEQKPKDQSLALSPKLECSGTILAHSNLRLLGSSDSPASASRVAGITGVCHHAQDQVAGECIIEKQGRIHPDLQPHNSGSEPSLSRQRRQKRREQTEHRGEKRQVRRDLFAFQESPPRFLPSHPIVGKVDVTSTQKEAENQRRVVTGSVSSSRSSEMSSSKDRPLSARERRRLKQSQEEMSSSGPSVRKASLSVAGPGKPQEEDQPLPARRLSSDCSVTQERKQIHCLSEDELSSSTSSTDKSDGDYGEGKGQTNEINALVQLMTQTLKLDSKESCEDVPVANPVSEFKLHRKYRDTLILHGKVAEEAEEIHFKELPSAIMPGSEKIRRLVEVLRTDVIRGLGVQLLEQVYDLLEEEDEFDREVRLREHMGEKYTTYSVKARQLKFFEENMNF

PDK2 (human) = PDK2 (human) (UniProt Q15119)
EPHA3 (human) = EPHA3 (human) (UniProt P29320)
NTRK3 (human) = NTRK3 (human) (UniProt Q16288)
Sequence of NTRK3 (human) (Q16288 whole entry, looked up): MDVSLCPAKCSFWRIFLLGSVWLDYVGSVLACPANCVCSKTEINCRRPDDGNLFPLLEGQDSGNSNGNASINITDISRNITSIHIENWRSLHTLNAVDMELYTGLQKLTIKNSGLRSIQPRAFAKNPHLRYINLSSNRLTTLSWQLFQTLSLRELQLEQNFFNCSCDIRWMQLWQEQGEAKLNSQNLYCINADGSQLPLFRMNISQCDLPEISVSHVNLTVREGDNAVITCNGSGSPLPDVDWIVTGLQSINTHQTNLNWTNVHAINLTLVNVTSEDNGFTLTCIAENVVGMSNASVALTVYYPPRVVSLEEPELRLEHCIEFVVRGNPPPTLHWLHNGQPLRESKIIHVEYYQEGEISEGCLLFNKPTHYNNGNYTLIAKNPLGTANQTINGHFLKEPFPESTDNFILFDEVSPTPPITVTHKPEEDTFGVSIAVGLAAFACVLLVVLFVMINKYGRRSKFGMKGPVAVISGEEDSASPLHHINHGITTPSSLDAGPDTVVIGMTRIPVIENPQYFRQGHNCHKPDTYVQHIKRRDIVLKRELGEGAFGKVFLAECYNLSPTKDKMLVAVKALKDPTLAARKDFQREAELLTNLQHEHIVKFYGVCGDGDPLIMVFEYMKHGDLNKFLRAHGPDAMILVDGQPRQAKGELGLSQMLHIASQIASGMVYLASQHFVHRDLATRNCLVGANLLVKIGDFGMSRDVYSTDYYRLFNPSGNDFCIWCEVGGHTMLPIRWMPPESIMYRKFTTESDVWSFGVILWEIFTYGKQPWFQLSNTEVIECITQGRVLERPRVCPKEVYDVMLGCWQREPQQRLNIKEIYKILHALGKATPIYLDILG

ROS1 (human) = ROS1 (human) (UniProt P08922)
SRPK2 (human) = SRPK2 (human) (UniProt P78362)
TNK2 (human) = TNK2 (human) (UniProt Q07912)

Sequence of PTK6 (human) (Q13882 whole entry, looked up): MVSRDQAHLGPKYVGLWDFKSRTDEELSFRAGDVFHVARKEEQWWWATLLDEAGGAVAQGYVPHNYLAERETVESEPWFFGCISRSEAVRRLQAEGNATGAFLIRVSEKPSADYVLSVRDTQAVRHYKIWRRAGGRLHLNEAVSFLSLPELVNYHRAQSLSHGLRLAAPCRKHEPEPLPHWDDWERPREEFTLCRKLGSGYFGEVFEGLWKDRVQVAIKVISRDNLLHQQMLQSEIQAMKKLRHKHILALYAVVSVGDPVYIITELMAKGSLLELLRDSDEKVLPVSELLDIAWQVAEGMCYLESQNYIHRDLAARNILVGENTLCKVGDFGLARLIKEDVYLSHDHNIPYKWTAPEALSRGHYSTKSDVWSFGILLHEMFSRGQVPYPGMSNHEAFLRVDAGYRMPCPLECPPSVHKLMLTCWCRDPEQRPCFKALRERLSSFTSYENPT
Sequence of MARK4 (human) (Q96L34 whole entry, looked up): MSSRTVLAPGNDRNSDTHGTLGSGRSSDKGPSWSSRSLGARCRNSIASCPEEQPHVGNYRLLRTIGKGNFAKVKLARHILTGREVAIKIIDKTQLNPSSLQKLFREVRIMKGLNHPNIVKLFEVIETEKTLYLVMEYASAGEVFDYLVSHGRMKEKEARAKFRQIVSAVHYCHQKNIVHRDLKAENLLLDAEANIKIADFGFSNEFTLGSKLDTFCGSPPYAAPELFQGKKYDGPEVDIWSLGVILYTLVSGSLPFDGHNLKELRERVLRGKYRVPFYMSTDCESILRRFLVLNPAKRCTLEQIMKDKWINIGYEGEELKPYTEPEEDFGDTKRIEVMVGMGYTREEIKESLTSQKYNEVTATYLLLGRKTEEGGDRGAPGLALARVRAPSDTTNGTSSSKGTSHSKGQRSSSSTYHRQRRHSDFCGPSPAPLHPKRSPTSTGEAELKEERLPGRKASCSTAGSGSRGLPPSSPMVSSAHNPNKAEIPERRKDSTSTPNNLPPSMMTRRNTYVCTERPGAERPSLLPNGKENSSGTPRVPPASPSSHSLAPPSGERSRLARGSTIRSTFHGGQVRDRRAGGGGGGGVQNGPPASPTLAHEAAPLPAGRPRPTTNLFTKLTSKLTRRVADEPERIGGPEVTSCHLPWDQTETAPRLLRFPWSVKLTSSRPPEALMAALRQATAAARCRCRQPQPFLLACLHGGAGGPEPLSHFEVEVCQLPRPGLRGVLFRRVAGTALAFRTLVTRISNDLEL

- inhibition (INSR (human); compound 0.02 µM): -0.3%
- inhibition (INSR (human); compound 0.2 µM): -2.4%
- Ki (PTK6 (human)): 11.8 nM
- inhibition (PTK6 (human); compound 0.02 µM): 44.1%
- inhibition (PTK6 (human); compound 0.2 µM): 92.1%
- inhibition (PRKD3 (human); compound 0.02 µM): -1%
- inhibition (PRKD3 (human); compound 0.2 µM): -2.5%
- inhibition (HIPK2 (human); compound 0.02 µM): -1.7%
- inhibition (HIPK2 (human); compound 0.2 µM): 0.7%
- inhibition (MARK4 (human); compound 0.02 µM): -7.1%
- inhibition (MARK4 (human); compound 0.2 µM): -7.3%
- inhibition (ERBB2 (human)): 3.9%
- inhibition (PASK (human); compound 0.02 µM): -4.3%
- inhibition (PASK (human); compound 0.2 µM): 0.3%
- inhibition (PTK2B (human); compound 0.02 µM): -1.9%
- inhibition (PTK2B (human); compound 0.2 µM): -5.4%
- inhibition (PHKG1 (human); compound 0.02 µM): -5.1%
- inhibition (PHKG1 (human); compound 0.2 µM): -3.5%
- inhibition (SPHK2 (human); compound 0.02 µM): 6.4%
- inhibition (SPHK2 (human); compound 0.2 µM): 2.8%
- inhibition (PRKG2 (human); compound 0.02 µM): -2.4%
- inhibition (PRKG2 (human); compound 0.2 µM): -3.4%
- inhibition (FER (human); compound 0.02 µM): 8.7%
- inhibition (FER (human); compound 0.2 µM): 11.2%
- inhibition (ROCK1 (human); compound 0.02 µM): -1.3%
- inhibition (ROCK1 (human); compound 0.2 µM): -1.3%
- inhibition (RPS6KA5 KD1 KD2 (human); compound 0.02 µM): -4.9%
- inhibition (RPS6KA5 KD1 KD2 (human); compound 0.2 µM): -7.3%
- inhibition (PRKD2 (human); compound 0.02 µM): -0.3%
- inhibition (PRKD2 (human); compound 0.2 µM): -1.5%
- inhibition (MST1R (human); compound 0.02 µM): 4.9%
- inhibition (MST1R (human); compound 0.2 µM): 10.8%
- inhibition (MKNK1 (human); compound 0.02 µM): -2.9%
- inhibition (MKNK1 (human); compound 0.2 µM): 2.6%
- inhibition (CHEK2 (human); compound 0.02 µM): -1.2%
- inhibition (CHEK2 (human); compound 0.2 µM): 3.6%
- inhibition (CDK1 (human); compound 0.02 µM): -0.7%
- inhibition (CDK1 (human); compound 0.2 µM): -3.2%
- inhibition (CLK2 (human); compound 0.02 µM): 0.3%
- inhibition (CLK2 (human); compound 0.2 µM): 1.1%
- inhibition (CSF1R (human); compound 0.02 µM): 18.4%
- inhibition (CSF1R (human); compound 0.2 µM): 36.8%
- inhibition (RPS6KA2 KD1 KD2 (human); compound 0.02 µM): 3.9%
- inhibition (RPS6KA2 KD1 KD2 (human); compound 0.2 µM): 2.2%
- inhibition (EPHA8 (human); compound 0.02 µM): -3.2%
- inhibition (EPHA8 (human); compound 0.2 µM): 4.7%
- inhibition (EPHA2 (human); compound 0.02 µM): -5.4%
- inhibition (EPHA2 (human); compound 0.2 µM): -3.5%
- inhibition (CSNK1D (human); compound 0.02 µM): -3.7% and -4.3%
- inhibition (CSNK1D (human); compound 0.2 µM): -3.5% and -3.9%
- inhibition (SYK (human); compound 0.02 µM): -4.7%
- inhibition (SYK (human); compound 0.2 µM): -3.5%
- inhibition (PRKCB1 (human); compound 0.02 µM): 5.1% and 8.3%
- inhibition (PRKCB1 (human); compound 0.2 µM): 7.3% and 7.5%
- inhibition (NEK4 (human); compound 0.02 µM): -3.8%
- inhibition (NEK4 (human); compound 0.2 µM): -3.9%
- inhibition (PDK2 (human); compound 0.02 µM): -2.7%
- inhibition (PDK2 (human); compound 0.2 µM): -4.9%
- inhibition (EPHA3 (human); compound 0.02 µM): -6.9%
- inhibition (EPHA3 (human); compound 0.2 µM): -1.2%
- inhibition (NTRK3 (human); compound 0.02 µM): 1.6%
- inhibition (NTRK3 (human); compound 0.2 µM): 1.8%
- inhibition (ROS1 (human); compound 0.02 µM): 0.6%
- inhibition (ROS1 (human); compound 0.2 µM): 0.4%
- inhibition (SRPK2 (human); compound 0.02 µM): -7.9%
- inhibition (SRPK2 (human); compound 0.2 µM): -5.3%
- inhibition (TNK2 (human); compound 0.02 µM): -6.7%
- inhibition (TNK2 (human); compound 0.2 µM): -5.4%
Compound: COc1cc2c(Oc3ccc4[nH]c(C)cc4c3F)ncnc2cc1OCCCN1CCCC1

From the kinase profiling compilation of Christmann-Franck et al. (2016)
